Experimental data as given in patent publication US20080176264A1, “Osteoclast Culture Vessels and Methods of Use” (priority 2004, published 2008).

Test system: primary human osteoclast precursors
Assay: In vitro bone resorption assay in OSTEOASSAY plate (CTx collagen resorption product in supernatant, EIA)
Assay type: cell-based
Conditions: supernatants assayed after an additional 2 days, M-CSF and soluble RANK ligand
Method: OSTEOASSAY™ plates, which contain adherent particles (≦0.125 mm dimension) of native human bone, were seeded with 10,000 primary human osteoclast precursors (“Poietics™ Osteoclast Precursors,” product no. 2T-110, Cambrex Corporation) per well in medium containing M-CSF+/−soluble RANK ligand and cultured at 37° C. for 5-7 days. Culture media were changed on day 5, 6 or 7 and the cultures were continued for another 1 to 3 days.
The release into the culture supernatants of collagen type I peptides from the bone particles was measured quantitatively by enzyme immunoassay (EIA). Three different commercially available assay kits for the measurement of resorption-specific collagen resorption fragments were evaluated: the METRA™ Helical Peptide EIA kit (Quidel), the Serum CROSSLAPS® ELISA (Nordic Bioscience) kit, and the OSTEOMARK® NTx (Ostex) kit. In some experiments, the OSTEOASSAY™ plate was compared to dentin discs (ALPCO Diagnostics). In other assays, primary human osteoclast precursors were exposed to inhibitors of osteoclast function (alendronate or calcitonin) for 48-72 hours and then assayed for bone resorptive activity.
Primary human osteoclast precursors were seeded at 10,000 cells/well and cultured in medium containing M-CSF and soluble RANK ligand. After 5 days of culture, the medium was renewed +/−1 nM calcitonin or +/−various concentrations of alendronate. […]

IC50 (Homo sapiens, Osteoclast, various concentrations added after 5 days of culture, FIG. 4, read-out: IC50 for inhibition of bone resorption (CTx collagen resorption product))	Compound	inhibition of in vitro bone resorption (CTx collagen resorption product) (1 nM calcitonin added after 5 days of culture, FIG. 3)
~1000 nM	NCCCC(O)(P(=O)(O)O)P(=O)(O)O [alendronate]	
	calcitonin	effectively inhibits in vitro bone resorption
